# Source: patent US20230125667A1, “NOVEL TDZD ANALOGS AS AGENTS THAT DELAY, PREVENT, OR REVERSE AGE-ASSOCIATED DISEASES AND AS ANTI-CANCER AND ANTILEUKEMIC AGENTS” (United States Government as represented by the Department …, priority 2020, published 2023)
# “Also recorded” adds a separate entry of the source.
# Key:
# GSK3β = target: T1, GSK3β (Homo sapiens, UniProt P49841); test: GSK3β activity (kinase) assay in vitro; assay type: biochemical; conditions: dose-response curves (FIG. 21)
# T1 construct: purchased BPS Bioscience
# Experimental: The GSK3β activity assay kit (BPS Bioscience) was used, with modification of the manufacturer's protocol. The assay was done in three replicates at three doses (0.01, 0.1, and 1 μM) of each inhibitor (TDZD8, PNR962) in a 96-well plate, using 1% DMSO (final solvent concentration) as the drug-free control. The kinase assay reaction was incubated for 45 minutes at 30′C and Kinase-Glo Max Assay (Promega) was then added and incubated for 15 minutes at room temperature. A negative control contained all the reagents except the test inhibitors and GSK3β enzyme and positive control contained all reagents except the test inhibitor. SpectraMax M3 (Molecular Devices, LLC) was used as a microplate reader. The luminescence negative control reading was used as 0% activity, positive control reading was used as 100% activity and kinase assay was based on the fact that all the reading in wells with test inhibitor, should lie between these values of negative control and positive controls. GSK3β inhibitions were calculated after subtracting negative control values from all the wells and graphs were generated using GraphPad Prism.
# The best predicted inhibitors were synthesized, and screened in both human neuronal cells, and in C. elegans models of neurodegeneration. These compounds were also tested for their ability to inhibit GSK3β activity in vitro.
# C. elegans strain AM141 = test: Q40::YFP aggregates in C. elegans strain AM141; assay type: in vivo
# Experimental: Several TDZD-conjugated drugs (putative GSK-3 inhibitors) were evaluated for their ability to reduce accumulation of protein aggregates, and for protection against aggregation-associated end-points in the following model systems: (i.) SH-SY5Y-APPSw, a neuroblastoma cell line expressing the Swedish mutation of Amyloid Precursor Protein (APPSw), and thus predisposed to form β-amyloid deposits; (ii.) C. elegans strain CL4176, a model of Alzheimer-like amyloidopathy that can be induced to express human Aβ1-42 in muscle, or may express it at a lower level without induction; (iii.) C. elegans strain AM141, a model of Huntington-like polyglutamine aggregation that constitutively expresses Q40::YFP (a tract of 40 glutamines fused in-frame to yellow fluorescent protein) in muscle cells and forms aggregates progressively with adult aging. The TDZD analog PNR-962 (a putative GSK-3 inhibitor) and other related compounds (not shown) were protective in all aggregation assays.
# Fresh agar plates supporting bacterial lawns, which serve as food for C. elegans, were prepared at least 1 day ahead of use. C. elegans AM141 (forming Q40::YFP aggregates in muscle, progressively in early adulthood) were placed on these 100-mm plates. Day-4 adult worms were lysed with alkaline hypochlorite solution to obtain eggs from worms, a procedure that permits synchronization of worms in a cohort. Eggs were placed on plates spotted with different concentrations of TDZD analogues after allowing the compounds to be evenly distributed on the plates (˜1 hour after adding drugs to plates). Vehicle-only (DMSO) controls are included in each experiment, as a baseline for drug effects in experimental groups. Young-adult AM141 (day-3 adults) were transferred on alternate days onto fresh plates that contained the same doses of compounds, with fresh E. coli to prevent starvation of worms. Equal samples (n=25) were randomly picked from experimental groups and control group for microscopic imaging. Using an in-house plugin for ImageJ software (NIH), several images of AM141 were processed for aggregate count per worm. The fluorescence intensity of each aggregate (indicating the size/content of protein aggregates) was also measured. Each drug treatment was repeated multiple times to validate the results.
# T1 sequence (P49841 whole entry): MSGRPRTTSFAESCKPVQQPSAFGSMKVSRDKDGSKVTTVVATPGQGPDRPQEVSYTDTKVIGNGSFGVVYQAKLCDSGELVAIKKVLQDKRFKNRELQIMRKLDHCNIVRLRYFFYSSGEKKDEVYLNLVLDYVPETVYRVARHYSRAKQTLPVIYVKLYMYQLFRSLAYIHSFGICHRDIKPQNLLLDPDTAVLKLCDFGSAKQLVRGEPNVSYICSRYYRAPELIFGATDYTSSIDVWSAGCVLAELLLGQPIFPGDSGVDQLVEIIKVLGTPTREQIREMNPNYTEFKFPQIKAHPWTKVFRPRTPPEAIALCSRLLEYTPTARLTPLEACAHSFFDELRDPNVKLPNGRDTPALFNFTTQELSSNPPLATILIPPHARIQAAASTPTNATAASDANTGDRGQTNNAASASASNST
structure (smiles),measurement,setting,value
O=c1sn(CCI)c(=O)n1Cc1ccccc1 [PNR-962],ability to inhibit GSK3β activity in vitro,GSK3β,markedly superior to TDZD8
same,number of Q40::YFP aggregates,"C. elegans strain AM141; 5-μM, 3 days of exposure (FIG. 6)",reduces huntingtin-like aggregates; also recorded: reduced the number of aggregates significantly
same,number of aggregation foci,C. elegans strain AM141; C. elegans model of Huntington's Disease (FIG. 7),decreases
same,aggregate intensity (content of Q40-YFP),C. elegans strain AM141; not shown,reduced aggregate intensity
